Consider ten molecules from patent EP2684879A1, “Substituted mesoionic compounds for combating animal pests” (priority 2012, dated 2014).

The structures appear in SMILES notation.

Holding throughout (format): in vivo
Assay [1] relates to boll weevil (Anthonomus grandis). The assay can be described thus: Boll weevil control, insect diet in 24-well microtiter plates. The conditions noted are these: 120 h, test concentration of 1415 ppm, egg and larval mortality visually assessed after 5 days. As to the method: For evaluating control of boll weevil (Anthonomus grandis) the test unit consists of 24-well-microtiter plates containing an insect diet and 20-30 A. grandis eggs. The compounds were formulated using a solution containing 75% v/v water and 25% v/v DMSO. Different concentrations of formulated compounds were sprayed onto the insect diet at 20 µl, using a custom built micro atomizer, at two replications. After application, microtiter plates were incubated at about 23 ± 1°C and about 50 ± 5 % relative humidity for 5 days. Egg and larval mortality was then visually assessed.

In assay [2] the test system is Mediterranean fruitfly (Ceratitis capitata). The assay can be described thus: Mediterranean fruitfly control, insect diet in microtiter plates. Particulars: 120 h, test concentration of 1415 ppm, egg and larval mortality visually assessed after 5 days. On the procedure:
For evaluating control of Mediterranean fruitfly (Ceratitis capitata) the test unit consisted of microtiter plates containing an insect diet and 50-80 C. capitata eggs. The compounds were formulated using a solution containing 75% v/v water and 25% v/v DMSO. Different concentrations of formulated compounds were sprayed onto the insect diet at 5 µl, using a custom built micro atomizer, at two replications. After application, microtiter plates were incubated at about 28 ± 1°C and about 80 ± 5 % relative humidity for 5 days. Egg and larval mortality was then visually assessed.

The subject of assay [3] is tobacco budworm (Heliothis virescens). The assay can be described thus: Tobacco budworm control, insect diet in 96-well microtiter plates. The conditions noted are these: 120 h. As to the method: For evaluating control of tobacco budworm (Heliothis virescens) the test unit consists of 96-well-microtiter plates containing an insect diet and 15-25 H. virescens eggs. The compounds were formulated using a solution containing 75% v/v water and 25% v/v DMSO. Different concentrations of formulated compounds were sprayed onto the insect diet at 10 µl, using a custom built micro atomizer, at two replications. After application, microtiter plates were incubated at about 28 ± 1°C and about 80 ± 5 % relative humidity for 5 days. Egg and larval mortality was then visually assessed.

Assay [4] deals with Green Peach Aphid (Myzus persicae, mixed life stages). The assay can be described thus: Green peach aphid, sprayed infested bell pepper plants. The conditions noted are these: 120 h, test concentration of 1415 ppm, after 5 days, relative to mortality on untreated control plants. The source says: The active compounds were formulated in cyclohexanone as a 10,000 ppm solution supplied in tubes. The tubes were inserted into an automated electrostatic sprayer equipped with an atomizing nozzle and they served as stock solutions for which lower dilutions were made in 50% acetone:50% water (v/v). A nonionic surfactant (Kinetic®) was included in the solution at a volume of 0.01 % (v/v). Bell pepper plants at the first true-leaf stage were infested prior to treatment by placing heavily infested leaves from the main colony on top of the treatment plants. Aphids were allowed to transfer overnight to accomplish an infestation of 30-50 aphids per plant and the host leaves were removed. The infested plants were then sprayed by an automated electrostatic plant sprayer equipped with an atomizing spray nozzle. The plants were dried in the sprayer fume hood, removed, and then maintained in a growth room under fluorescent lighting in a 24-hr photoperiod at about 25°C and about 20-40% relative humidity. Aphid mortality on the treated plants, relative to mortality on untreated control plants, was determined after 5 days.

In assay [5] the test system is Orchid thrips (Dichromothrips corbetti). Nature of the assay: Orchid thrips, floral-immersion technique. Particulars: 96 h, test concentration of 100 ppm, after 4 days, in comparison with untreated controls. On the procedure:
Dichromothrips corbetti adults used for bioassay were obtained from a colony maintained continuously under laboratory conditions. For testing purposes, the test compound was diluted to a concentration of 300 ppm (wt compound: vol diluent) in a 1:1 mixture of acetone:water (vol:vol), plus 0.01 % vol/vol Kinetic® surfactant. Thrips potency of each compound was evaluated by using a floral-immersion technique. Plastic petri dishes were used as test arenas. All petals of individual, intact orchid flowers were dipped into treatment solution and allowed to dry. Treated flowers were placed into individual petri dishes along with 10 - 15 adult thrips. The petri dishes were then covered with lids. All test arenas were held under continuous light and a temperature of about 28°C for duration of the assay. After 4 days, the numbers of live thrips were counted on each flower, and along inner walls of each petri dish. The level of thrips mortality was extrapolated from pre-treatment thrips numbers.

Assay [6] relates to Southern Armyworm (Spodoptera eridania, 2nd instar larvae). Nature of the assay: Southern armyworm, sprayed lima bean plants. The conditions noted are these: 96 h, test concentration of 500 ppm, 4 days after treatment, in comparison with untreated controls. As to the method: The active compounds were formulated in cyclohexanone as a 10, 0000 ppm solution supplied in 1.3 ml ABgene® tubes. These tubes were inserted into an automated electrostatic sprayer equipped with an atomizing nozzle and they served as stock solutions for which lower dilutions were made in 50% acetone: 50% water (v/v). A nonionic surfactant (Kinetic®) was included in the solution at a volume of 0.01% (v/v). Lima bean plants (variety Sieva) were grown 2 plants to a pot and selected for treatment at the 1st true leaf stage. Test solutions were sprayed onto the foliage by an automated electrostatic plant sprayer equipped with an atomizing spray nozzle. The plants were dried in the sprayer fume hood and then removed from the sprayer. Each pot was placed into perforated plastic bags with a zip closure. Ten to 11 armyworm larvae were placed into the bag and the bags zipped closed. Test plants were maintained in a growth room at 25°C and 20-40% relative humidity for 4 days, avoiding direct exposure to fluorescent light (24 hour photoperiod) to prevent trapping of heat inside the bags. Mortality and reduced feeding were assessed 4 days after treatment, compared to untreated control plants.

The subject of assay [7] is vetch aphid (Megoura viciae). Nature of the assay: Vetch aphid control, broad bean leaf disks, contact or systemic. The conditions noted are these: foliar, 120 h, test concentration of 1415 ppm, aphid mortality visually assessed after 5 days.
Assay [8] relates to Rice brown plant hopper (Nilaparvata lugens). Nature of the assay: Rice brown plant hopper, sprayed potted rice seedlings. The conditions noted are these: test concentration of 500 ppm, after 72 hours, in comparison with untreated controls. On the procedure:
Rice seedlings were cleaned and washed 24 hours before spraying. The active compounds were formulated in 50:50 acetone:water (vol:vol) and 0.1 % vol/vol surfactant (EL 620) was added. Potted rice seedlings were sprayed with 5 ml test solution, air dried, placed in cages and inoculated with 10 adults. Treated rice plants were kept at about 28-29°C and relative humidity of about 50-60%. Percent mortality was recorded after 72 hours.

A word on the mortality: it is the percentage killed. Low readings indicate a weak lethal effect, high ones a strong lethal effect.

For the molecule `CCS(CC)=NC(=O)c1ccc(-c2cccc(-c3c([O-])[n+](Cc4cnc(Cl)s4)c4c(C)cccn4c3=O)c2)cc1` [Compound C-1], the mortality at 1415 ppm in assay [1], in assay [2], in assay [3] and in assay [4] was at least 75% throughout. Moreover, the mortality at 100 ppm in assay [5] is at least 75%. Moreover, in assay [6], the mortality at 500 ppm was at least 75%.

`CCS(CC)=NC(=O)c1cccc(-c2c([O-])[n+](Cc3ccc(Cl)nc3)c3ccccn3c2=O)c1` [Compound C-4, 1-[(6-chloro-3-pyridyl)methyl]-3-[3-[(diethyl-λ4-sulfanylidene)carbamoyl]phenyl]-4-oxo-pyrido[1,2-a]pyrimidin-1-ium-2-olate] registered a mortality at 500 ppm in assay [6] of at least 75%.

For the molecule `CC(C)S(=NC(=O)c1cccc(-c2c([O-])[n+](Cc3ccc(Cl)nc3)c3ccccn3c2=O)c1)C(C)C` [Compound C-5], the mortality at 1415 ppm in assay [4] is at least 75%. This molecule displayed a mortality at 500 ppm in assay [6] of at least 75%.

For `CCS(=NC(=O)c1ccc(-c2cccc(-c3c([O-])[n+](Cc4ccc(Cl)nc4)c4ccccn4c3=O)c2)cc1)C1CC1` (centres unmarked) [Compound C-7], the mortality at 1415 ppm in assay [7] and in assay [4] was at least 75% each time. In addition, in assay [6], the mortality at 500 ppm is at least 75%.

As for `CC(C)S(=NC(=O)c1ccc(-c2cccc(-c3c([O-])[n+](Cc4ccc(Cl)nc4)c4ccccn4c3=O)c2)cc1)C(C)C` [Compound C-8], in assay [4], the mortality at 1415 ppm was at least 75%. The same molecule displayed a mortality at 500 ppm in assay [6] of at least 75%.

Molecule `CCS(CC)=NC(=O)c1cccc(-c2cc(-c3c([O-])[n+](Cc4ccc(Cl)nc4)c4ccccn4c3=O)ccc2OC)c1` [Compound C-9] showed a mortality at 1415 ppm in assay [4] of at least 75%.

In turn, `CCS(CC)=NC(=O)c1cccc(-c2cc(-c3c([O-])[n+](Cc4cnc(Cl)s4)c4c(C)cccn4c3=O)ccc2Cl)c1` [Compound C-10] displayed a mortality at 1415 ppm in assay [4] of at least 75%.

With `CCS(CC)=NC(=O)c1cccc(-c2cccc(-c3c([O-])[n+](Cc4ccc(Cl)nc4)c4ccccn4c3=O)c2)c1` [Compound C-11], the mortality at 1415 ppm in assay [4] is at least 75%.

`CCS(=NC(=O)c1cccc(-c2cccc(-c3c([O-])[n+](Cc4ccc(Cl)nc4)c4ccccn4c3=O)c2)c1)C1CC1` (centres unmarked) [Compound C-12]: the mortality at 1415 ppm in assay [4] is at least 75%.

With `CC(C)S(=NC(=O)c1cccc(-c2cccc(-c3c([O-])[n+](Cc4ccc(Cl)nc4)c4ccccn4c3=O)c2)c1)C(C)C` [Compound C-13], the mortality at 1415 ppm in assay [4] was at least 75%. In assay [8], the mortality at 500 ppm was at least 75%.
